Assay results from the NIST ThermoML archive (doi:10.1016/j.jct.2007.05.011).

Assays:
[1] = xn = mol fraction of the nth substance listed; details: 101 kPa, Liquid, x1 = 1; for mass density: Vibrating tube method
[2] = 101 kPa, Liquid; for mass density: Vibrating tube method

CCO [ethanol] + NCCO.O=CO
[1]
Details | mass density [kg/m3] | speed of sound [m/s]
288.15 K | 794.444 | 1178.2
290.65 K | 792.305 | 1169.1
293.15 K | 790.158 | 1160.3
295.65 K | 788.027 | 1151.7
298.15 K | 785.89 | 1143.1
300.65 K | 783.729 | 1134.6
303.15 K | 781.591 | 1126.2
305.65 K | 779.402 | 1117.8
308.15 K | 777.238 | 1109.4
310.65 K | 775.055 | 1101
313.15 K | 772.846 | 1092.7
315.65 K | 770.625 | 1084.3
318.15 K | 768.482 | 1075.9
320.65 K | 766.198 | 1067.5
323.15 K | 764.019 | 1058.8

CCO [ethanol]
[2]
Details | mass density [kg/m3] | speed of sound [m/s]
288.15 K | 794.444 | 1178.2
290.65 K | 792.305 | 1169.1
293.15 K | 790.158 | 1160.3
295.65 K | 788.027 | 1151.7
298.15 K | 785.89 | 1143.1
300.65 K | 783.729 | 1134.6
303.15 K | 781.591 | 1126.2
305.65 K | 779.402 | 1117.8
308.15 K | 777.238 | 1109.4
310.65 K | 775.055 | 1101
313.15 K | 772.846 | 1092.7
315.65 K | 770.625 | 1084.3
318.15 K | 768.482 | 1075.9
320.65 K | 766.198 | 1067.5
323.15 K | 764.019 | 1058.8

NCCO.O=CO [2-hydroxyethylammonium formate]
[2]
Details | mass density [kg/m3] | speed of sound [m/s]
288.15 K | 1183.57 | 1733.9
290.65 K | 1181.81 | 1727.4
293.15 K | 1180.04 | 1721.3
295.65 K | 1178.27 | 1715.1
298.15 K | 1176.49 | 1709
300.65 K | 1174.71 | 1702.9
303.15 K | 1172.94 | 1696.8
305.65 K | 1171.16 | 1690.8
308.15 K | 1169.39 | 1684.8
310.65 K | 1167.62 | 1678.7
313.15 K | 1165.84 | 1672.7
315.65 K | 1164.06 | 1666.7
318.15 K | 1162.29 | 1660.8
320.65 K | 1160.51 | 1654.8
323.15 K | 1158.73 | 1648.9

CO [methanol] + NCCO.O=CO
[1]
Details | mass density [kg/m3] | speed of sound [m/s]
288.15 K | 795.775 | 1134.5
290.65 K | 793.495 | 1126.2
293.15 K | 791.149 | 1118
295.65 K | 788.811 | 1109.8
298.15 K | 786.463 | 1101.6
300.65 K | 784.102 | 1093.4
303.15 K | 781.764 | 1085.5
305.65 K | 779.385 | 1077.3
308.15 K | 777.026 | 1069.2
310.65 K | 774.659 | 1061.1
313.15 K | 772.261 | 1052.9
315.65 K | 769.86 | 1044.9
318.15 K | 767.541 | 1036.7
320.65 K | 765.074 | 1028.6
323.15 K | 762.738 | 1020.5

CO [methanol]
[2]
Details | mass density [kg/m3] | speed of sound [m/s]
288.15 K | 795.775 | 1134.5
290.65 K | 793.495 | 1126.2
293.15 K | 791.149 | 1118
295.65 K | 788.811 | 1109.8
298.15 K | 786.463 | 1101.6
300.65 K | 784.102 | 1093.4
303.15 K | 781.764 | 1085.5
305.65 K | 779.385 | 1077.3
308.15 K | 777.026 | 1069.2
310.65 K | 774.659 | 1061.1
313.15 K | 772.261 | 1052.9
315.65 K | 769.86 | 1044.9
318.15 K | 767.541 | 1036.7
320.65 K | 765.074 | 1028.6
323.15 K | 762.738 | 1020.5

O [water] + NCCO.O=CO
[1]
Details | mass density [kg/m3] | speed of sound [m/s]
290.65 K | 998.68 | 1474.7
295.65 K | 997.65 | 1489.9
300.65 K | 996.37 | 1503.4
305.65 K | 994.86 | 1515.1
310.65 K | 993.15 | 1525
313.15 K | – | 1529.3
315.65 K | 991.24 | 1533.2
318.15 K | – | 1536.6
320.65 K | 989.15 | 1539.6
323.15 K | 988.04 | 1542.1
